In patent publication US7322965B2, “Infection-resistant medical devices” (priority 2002, dated 2008):
Values after ≈ are worked out from the molar mass of the structure shown. “Also recorded” adds a separate entry of the source. Where two headings read alike, the source gives them in different places. Marks after values point to notes of the source that are not given here.

Key:
[1] = test system: S. epidermidis isolates (UC-20207, UC-20208, and RP62A); assay: Time course adherence assay, summary over three S. epidermidis isolates; assay type: cell-based
Experimental: Drug effects on bacterial adherence were measured 18 hours after treatment initiation using a quantitative spectrophotometric assay.
Relative inhibition of adherence was expressed by the following equation: (OD of control well−OD of treated well/OD of control well)×100, where OD is the mean optical density of six replicate wells from two separate experiments (three replicates per experiment). Control was defined as infected, drug-free cultures.
The primary efficacy variable in this study was the measurement of adherent bacteria to polystyrene surfaces after 18 hours to 24 hours of growth. To determine whether statistically significant differences existed between treatments (4×MIC, 2×MIC, MIC, and ½ MIC) compared with the infected-nontreated controls, multiple comparisons according to Dunnett's test (Montgomery, Design and Analysis of Experiments (1991)) were applied for each clinical strain. Differences were considered statistically significant when p<0.05.

[2] = test system: S. hominis SP-2; assay: Determination of minimum inhibitory concentration (microdilution); assay type: cell-based; conditions: Staphylococcus hominis, SP2, 18 h, read-out: MIC (minimum inhibitory concentration)
[3] = test system: S. epidermidis RP62A; assay: as above; assay type: cell-based; conditions: Staphylococcus epidermidis, RP62A, 18 h, read-out: MIC (minimum inhibitory concentration)
[4] = test system: S. aureus and S. epidermidis strains; assay: Microtiter-plate adherence assay, summary over all strains evaluated; assay type: cell-based, staphylococci; conditions: concentrations less than the MIC, as low as one-fourth the MIC; five strains
Experimental: (§1) Briefly, the inoculum was established by the direct colony suspension method using the Prompt™ Inoculation System (Becton Dickinson, Sparks, Md.). The bacteria suspension, which was equal to the turbidity of a 0.5 McFarland standard, was diluted in TSB to a concentration of 1×10^6 colony forming units per ml (CFU/mL). One hundred microliters of the cell suspension was added to flat-bottom polystyrene wells (Corning Costar, Corning, N.Y.) containing 100 μl of TSB, with and without drug. The final inoculum concentration per well was approximately 5×10^5 CFU/mL. The plates were incubated at 37° C. under static conditions in air. At 18 hours (h) post-infection, the optical density of bacterial growth was measured at a wavelength of 595 nm in a microtiter plate reader (Vmax; Molecular Devices, Sunnyvale, Calif.). […] Adherent “sessile” cells then were fixed with 3.7% (v/v) formaldehyde/2% (w/v) sodium acetate and stained with 0.1% (w/v) crystal violet. Excess stain was rinsed off with deionized water and the plates were air-dried for 4 h. The optical density of bacterial adherence was determined at a wavelength of 550 nm. Preliminary studies were performed to determine the optimal wavelengths for measuring growth turbidity and stained adherent cells (data not shown). To compensate for background absorbance, optical density readings from wells treated with sterile medium, fixative and stain as described above were averaged and then subtracted from all test and control wells. Relative inhibition of adherence or growth was expressed by the following equation: (OD of control well−OD of treated well/OD of control well)×100, where OD is the mean optical density of six replicate wells from two separate experiments (three replicates per experiment). Control was defined as infected, drug-free cultures.
(§2) The primary efficacy variable in this study was the measurement of adherent bacterial cells to polystyrene after 18 h of growth. To determine whether statistically significant differences existed between treatment groups (MIC, ½ MIC, and ¼ MIC) compared with the infected-nontreated controls, the Kruskal-Wallis one-way analysis of variance (ANOVA) was applied for each clinical strain. Statistical significance was defined as p-values ≦0.05. An asterisk (*) was placed by all test values less than or equal to the specified significance level.

[5] = test system: S. epidermidis RP62A; assay: Time course adherence assay (prophylactic and delayed treatment); assay type: cell-based; conditions: for inhibition at 1 µg/mL / inhibition at 2 µg/mL / inhibition at 4 µg/mL / inhibition at 8 µg/mL: Staphylococcus epidermidis, read-out: Percent inhibition of bacterial adherence relative to controls
Outline: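 Adherence of S. epidermidis to polystyrene read spectrophotometrically 18 h after treatment start, with drug at 4×MIC, 2×MIC, MIC and ½ MIC, given prophylactically or delayed. Inhibition (%) = (OD control − OD treated)/OD control × 100, from six wells over two experiments; control was infected drug-free culture. Dunnett's test vs untreated, p<0.05.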

[6] = test system: S. hominis SP2; assay: Microtiter-plate adherence assay on polystyrene, nonadherent reference strain; assay type: cell-based; conditions: data not shown
Experimental: Briefly, the inoculum was established by the direct colony suspension method using the Prompt™ Inoculation System (Becton Dickinson, Sparks, Md.). The bacteria suspension, which was equal to the turbidity of a 0.5 McFarland standard, was diluted in TSB to a concentration of 1×10^6 colony forming units per ml (CFU/mL). One hundred microliters of the cell suspension was added to flat-bottom polystyrene wells (Corning Costar, Corning, N.Y.) containing 100 μl of TSB, with and without drug. The final inoculum concentration per well was approximately 5×10^5 CFU/mL. The plates were incubated at 37° C. under static conditions in air. At 18 hours (h) post-infection, the optical density of bacterial growth was measured at a wavelength of 595 nm in a microtiter plate reader (Vmax; Molecular Devices, Sunnyvale, Calif.). […] The optical density of bacterial adherence was determined at a wavelength of 550 nm. […] To compensate for background absorbance, optical density readings from wells treated with sterile medium, fixative and stain as described above were averaged and then subtracted from all test and control wells. […]
Reliability of the microtiter-plate adherence assay was assessed with the reference strains S. hominis SP2 (nonadherent) and S. epidermidis RP62A (strongly adherent). The median optical density readings for SP2 and RP62A were 0.059±0.004 and 2.789±0.266, respectively. […]

[7] = test system: S. epidermidis UC-20208; assay: Determination of minimum inhibitory concentration (microdilution); assay type: cell-based; conditions: Staphylococcus epidermidis, UC20208, 18 h, read-out: MIC (minimum inhibitory concentration)
[8] = test system: S. aureus UC-20205; assay: Microtiter-plate adherence assay on polystyrene; assay type: cell-based; conditions: for Adherence Mean OD550: S. aureus UC-20205, 18 h
Experimental: as §1, §2

[9] = test system: S. epidermidis UC-20208; assay: Microtiter-plate adherence assay on polystyrene; assay type: cell-based; conditions: for Adherence Mean OD550: S. epidermidis UC-20208, 18 h
Experimental: as §1, §2

[10] = test system: S. aureus UC-20206; assay: Microtiter-plate adherence assay on polystyrene; assay type: cell-based; conditions: for Adherence Mean OD550: S. aureus UC-20206, 18 h
Experimental: as §1, §2

[11] = Staphylococcus aureus, UC20205, 18 h, read-out: Adherence % Inhibition
[12] = Staphylococcus epidermidis, UC20208, 18 h, read-out: Adherence % Inhibition
[13] = Staphylococcus aureus, UC20206, 18 h, read-out: Adherence % Inhibition

## CN[C@H](CC(C)C)C(=O)N[C@H]1C(=O)N[C@@H](CC(N)=O)C(=O)N[C@H]2C(=O)N[C@H]3C(=O)N[C@H](C(=O)N[C@H](C(=O)O)c4cc(O)cc(O)c4-c4cc3ccc4O)[C@H](O)c3ccc(c(Cl)c3)Oc3cc2cc(c3O[C@@H]2O[C@H](CO)[C@@H](O)[C@H](O)[C@H]2O[C@H]2C[C@](C)(N)[C@H](O)[C@H](C)O2)Oc2ccc(cc2Cl)[C@H]1O [Vancomycin]
[1]; subtherapeutic concentrations (one-half MIC)
  activity against cell adhesion: minimal or no activity against cell adhesion
[1]; therapeutic levels, administered 2 hours post-infection, compared with linezolid
  anti-adhesion activity: equally effective
[1]; treatments delayed by 4 to 6 hours
  anti-adhesion activity: only the highest concentrations (>MIC) demonstrated anti-adhesion activity
[2]
  MIC: 1 µg/mL (≈ 0.69 µM)
[3]
  MIC: 2 µg/mL (≈ 1.38 µM)
[4]
  effect on bacterial adhesion at subinhibitory concentrations: minimal or no activity against bacterial adhesion; also recorded: did not inhibit staphylococcal adherence in four of the five strains assessed
[5]; 1.0 μg/ml, treatment 0 h post-infection
  Mean OD550: 0.664 ± 0.632
[5]; 1.0 μg/ml, treatment 2 h post-infection
  Mean OD550: 1.147 ± 0.527
[5]; 1.0 μg/ml, treatment 4 h post-infection
  Mean OD550: 2.311 ± 0.318
[5]; 1.0 μg/ml, treatment 6 h post-infection
  Mean OD550: 2.202 ± 0.238
[5]; 2.0 μg/ml (MIC), treatment 0 h post-infection
  Mean OD550: 0.002 ± 0.002
[5]; 2.0 μg/ml (MIC), treatment 2 h post-infection
  Mean OD550: 0.000 ± 0.001
[5]; 2.0 μg/ml (MIC), treatment 4 h post-infection
  Mean OD550: 1.312 ± 0.936
[5]; 2.0 μg/ml (MIC), treatment 6 h post-infection
  Mean OD550: 2.114 ± 0.439
[5]; 4.0 μg/ml, treatment 0 h post-infection
  Mean OD550: 0.002 ± 0.002
[5]; 4.0 μg/ml, treatment 2 h post-infection
  Mean OD550: 0.000 ± 0.002
[5]; 4.0 μg/ml, treatment 4 h post-infection
  Mean OD550: 0.003 ± 0.004
[5]; 4.0 μg/ml, treatment 6 h post-infection
  Mean OD550: 1.562 ± 0.573
[5]; 8.0 μg/ml, treatment 0 h post-infection
  Mean OD550: 0.001 ± 0.001
[5]; 8.0 μg/ml, treatment 2 h post-infection
  Mean OD550: 0.000 ± 0.001
[5]; 8.0 μg/ml, treatment 4 h post-infection
  Mean OD550: 0.004 ± 0.004
[5]; 8.0 μg/ml, treatment 6 h post-infection
  Mean OD550: 0.025 ± 0.030
[5]; 0 h
  inhibition at 1 µg/mL: 69.3%
  inhibition at 2 µg/mL: 99.9%
  inhibition at 4 µg/mL: 99.9%
  inhibition at 8 µg/mL: 99.9%
[5]; 2 h
  inhibition at 1 µg/mL: 41.4%
  inhibition at 2 µg/mL: 100%
  inhibition at 4 µg/mL: 100%
  inhibition at 8 µg/mL: 100%
[5]; 4 h
  inhibition at 1 µg/mL: 0%
  inhibition at 2 µg/mL: 29.4%
  inhibition at 4 µg/mL: 99.8%
  inhibition at 8 µg/mL: 99.8%
[5]; 6 h
  inhibition at 1 µg/mL: 0%
  inhibition at 2 µg/mL: 0%
  inhibition at 4 µg/mL: 19%
  inhibition at 8 µg/mL: 98.7%
[6]
  promotion of adherence of the nonadherent strain: Neither linezolid nor vancomycin promoted adherence
[7]
  MIC: 2 µg/mL (≈ 1.38 µM)
[8]; drug 0.25 μg/ml
  Adherence Mean OD550: 0.730 ± 0.202
[8]; drug 0.5 μg/ml
  Adherence Mean OD550: 0.012 ± 0.013*
[8]; drug 1.0 μg/ml
  Adherence Mean OD550: 0.000 ± 0.001*
[8]; [11]
  inhibition at 0.25 µg/mL: 0%
  inhibition at 0.5 µg/mL: 98%
  inhibition at 1 µg/mL: 100%
[9]; drug 0.5 μg/ml
  Adherence Mean OD550: 2.165 ± 0.150
[9]; drug 1.0 μg/ml
  Adherence Mean OD550: 2.716 ± 0.400
[9]; drug 2.0 μg/ml (MIC)
  Adherence Mean OD550: 0.000 ± 0.001*
[9]; [12]
  inhibition at 0.5 µg/mL: 0%
  inhibition at 1 µg/mL: 0%
  inhibition at 2 µg/mL: 100%
[10]; drug 0.25 μg/ml
  Adherence Mean OD550: 0.192 ± 0.020
[10]; drug 0.5 μg/ml
  Adherence Mean OD550: 0.267 ± 0.044
[10]; drug 1.0 μg/ml
  Adherence Mean OD550: 0.000 ± 0.003*
[10]; [13]
  inhibition at 0.25 µg/mL: 12.5%
  inhibition at 0.5 µg/mL: 0%
  inhibition at 1 µg/mL: 9.99%
